This passage reports AC50 results from ChEMBL document CHEMBL5291721, “A preclinical secondary pharmacology resource illuminates target-adverse drug reaction associations of marketed drugs” (Nat Commun, 2023).

Bounds are passed on as bounds.

The target in test [1] is T1, Alpha-2A adrenergic receptor (Homo sapiens, UniProt P08913).
T1 sequence (P08913 whole entry): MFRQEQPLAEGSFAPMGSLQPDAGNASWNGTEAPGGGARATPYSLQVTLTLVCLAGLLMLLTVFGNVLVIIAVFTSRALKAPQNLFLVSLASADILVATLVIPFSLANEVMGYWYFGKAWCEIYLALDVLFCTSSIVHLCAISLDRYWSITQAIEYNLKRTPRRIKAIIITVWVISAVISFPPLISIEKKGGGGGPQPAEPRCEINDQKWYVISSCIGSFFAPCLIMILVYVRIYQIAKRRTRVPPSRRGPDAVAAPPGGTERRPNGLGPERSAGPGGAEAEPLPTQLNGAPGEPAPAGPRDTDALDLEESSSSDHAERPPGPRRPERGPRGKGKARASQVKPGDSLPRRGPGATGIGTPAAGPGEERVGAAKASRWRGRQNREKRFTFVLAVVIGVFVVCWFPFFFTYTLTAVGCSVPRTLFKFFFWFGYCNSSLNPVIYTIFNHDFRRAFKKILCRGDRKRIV
It counts as functional, cell-based.

In the next test the target is D(3) dopamine receptor (Homo sapiens, UniProt P35462).
The target of test [2] is cGMP-inhibited 3',5'-cyclic phosphodiesterase 3A (Homo sapiens, UniProt Q14432). It counts as functional.
The next test addresses T2, Thromboxane A2 receptor (Homo sapiens, UniProt P21731).
T2 sequence (P21731 whole entry): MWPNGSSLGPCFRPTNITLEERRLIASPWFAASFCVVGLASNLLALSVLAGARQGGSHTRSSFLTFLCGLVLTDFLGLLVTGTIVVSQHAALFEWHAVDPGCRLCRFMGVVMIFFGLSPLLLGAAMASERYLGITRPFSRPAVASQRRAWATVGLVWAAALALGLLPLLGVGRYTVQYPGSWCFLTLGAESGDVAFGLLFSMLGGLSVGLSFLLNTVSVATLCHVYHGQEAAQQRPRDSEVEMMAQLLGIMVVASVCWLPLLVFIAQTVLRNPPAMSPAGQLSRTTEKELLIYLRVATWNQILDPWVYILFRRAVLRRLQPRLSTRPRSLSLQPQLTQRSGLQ

A further test deals with Mu-type opioid receptor (Homo sapiens, UniProt P35372). Briefly: biochemical. The format is functional.
Test [3] has as its target Voltage-gated inwardly rectifying potassium channel KCNH2 (Homo sapiens, UniProt Q12809). The format is functional.
The target of test [4] is T3, Muscarinic acetylcholine receptor M1 (Homo sapiens, UniProt P11229).
T3 sequence (P11229 whole entry): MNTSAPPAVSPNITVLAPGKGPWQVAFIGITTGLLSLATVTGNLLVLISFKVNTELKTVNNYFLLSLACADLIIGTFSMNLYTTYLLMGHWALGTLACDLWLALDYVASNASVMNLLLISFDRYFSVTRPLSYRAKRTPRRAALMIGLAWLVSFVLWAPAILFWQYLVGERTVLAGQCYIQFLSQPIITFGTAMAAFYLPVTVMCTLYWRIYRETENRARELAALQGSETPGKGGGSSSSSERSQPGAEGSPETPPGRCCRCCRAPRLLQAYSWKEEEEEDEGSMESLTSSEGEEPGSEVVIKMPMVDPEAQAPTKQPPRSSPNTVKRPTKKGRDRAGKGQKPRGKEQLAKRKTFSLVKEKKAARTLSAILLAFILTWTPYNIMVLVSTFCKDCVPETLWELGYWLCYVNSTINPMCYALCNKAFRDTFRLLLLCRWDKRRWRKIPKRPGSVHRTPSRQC
The format is functional.

Test [5] deals with T4, 5-hydroxytryptamine receptor 1A (Homo sapiens, UniProt P08908).
T4 sequence (P08908 whole entry): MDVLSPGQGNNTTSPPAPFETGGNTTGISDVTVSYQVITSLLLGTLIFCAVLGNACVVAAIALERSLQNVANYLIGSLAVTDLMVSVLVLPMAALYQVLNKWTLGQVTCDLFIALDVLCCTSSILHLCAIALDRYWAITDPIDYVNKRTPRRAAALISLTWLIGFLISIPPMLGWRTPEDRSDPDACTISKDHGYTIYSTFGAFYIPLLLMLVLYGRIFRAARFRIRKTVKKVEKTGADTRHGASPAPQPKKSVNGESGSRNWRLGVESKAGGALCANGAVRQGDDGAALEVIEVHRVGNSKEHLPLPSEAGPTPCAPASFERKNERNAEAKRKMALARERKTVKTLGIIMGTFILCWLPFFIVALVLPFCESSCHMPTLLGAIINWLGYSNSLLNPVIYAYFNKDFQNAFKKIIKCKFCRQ
The format is functional, cell-based.

The target in test [6] is T5, Gastrin/cholecystokinin type B receptor (Homo sapiens, UniProt P32239).
T5 sequence (P32239 whole entry): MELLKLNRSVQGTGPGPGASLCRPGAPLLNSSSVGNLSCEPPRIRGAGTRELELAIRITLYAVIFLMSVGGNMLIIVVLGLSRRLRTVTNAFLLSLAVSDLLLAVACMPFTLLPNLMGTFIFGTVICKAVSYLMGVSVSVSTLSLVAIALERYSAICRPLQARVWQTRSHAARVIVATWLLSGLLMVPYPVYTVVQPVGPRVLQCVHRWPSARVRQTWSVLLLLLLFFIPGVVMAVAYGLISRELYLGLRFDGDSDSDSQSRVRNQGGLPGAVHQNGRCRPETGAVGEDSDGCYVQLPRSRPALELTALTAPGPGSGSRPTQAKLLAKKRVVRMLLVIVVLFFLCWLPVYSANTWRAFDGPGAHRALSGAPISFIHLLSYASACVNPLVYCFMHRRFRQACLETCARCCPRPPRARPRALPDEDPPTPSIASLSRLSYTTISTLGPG

The target in test [7] is T1, Alpha-2A adrenergic receptor. It counts as functional, cell-based. This is another data set of the same source.
Test [8] has as its target Muscarinic acetylcholine receptor M3 (Homo sapiens, UniProt P20309).
Note: assay procedure not described here.

Sequence of Voltage-gated inwardly rectifying potassium channel KCNH2 (Q12809 whole entry): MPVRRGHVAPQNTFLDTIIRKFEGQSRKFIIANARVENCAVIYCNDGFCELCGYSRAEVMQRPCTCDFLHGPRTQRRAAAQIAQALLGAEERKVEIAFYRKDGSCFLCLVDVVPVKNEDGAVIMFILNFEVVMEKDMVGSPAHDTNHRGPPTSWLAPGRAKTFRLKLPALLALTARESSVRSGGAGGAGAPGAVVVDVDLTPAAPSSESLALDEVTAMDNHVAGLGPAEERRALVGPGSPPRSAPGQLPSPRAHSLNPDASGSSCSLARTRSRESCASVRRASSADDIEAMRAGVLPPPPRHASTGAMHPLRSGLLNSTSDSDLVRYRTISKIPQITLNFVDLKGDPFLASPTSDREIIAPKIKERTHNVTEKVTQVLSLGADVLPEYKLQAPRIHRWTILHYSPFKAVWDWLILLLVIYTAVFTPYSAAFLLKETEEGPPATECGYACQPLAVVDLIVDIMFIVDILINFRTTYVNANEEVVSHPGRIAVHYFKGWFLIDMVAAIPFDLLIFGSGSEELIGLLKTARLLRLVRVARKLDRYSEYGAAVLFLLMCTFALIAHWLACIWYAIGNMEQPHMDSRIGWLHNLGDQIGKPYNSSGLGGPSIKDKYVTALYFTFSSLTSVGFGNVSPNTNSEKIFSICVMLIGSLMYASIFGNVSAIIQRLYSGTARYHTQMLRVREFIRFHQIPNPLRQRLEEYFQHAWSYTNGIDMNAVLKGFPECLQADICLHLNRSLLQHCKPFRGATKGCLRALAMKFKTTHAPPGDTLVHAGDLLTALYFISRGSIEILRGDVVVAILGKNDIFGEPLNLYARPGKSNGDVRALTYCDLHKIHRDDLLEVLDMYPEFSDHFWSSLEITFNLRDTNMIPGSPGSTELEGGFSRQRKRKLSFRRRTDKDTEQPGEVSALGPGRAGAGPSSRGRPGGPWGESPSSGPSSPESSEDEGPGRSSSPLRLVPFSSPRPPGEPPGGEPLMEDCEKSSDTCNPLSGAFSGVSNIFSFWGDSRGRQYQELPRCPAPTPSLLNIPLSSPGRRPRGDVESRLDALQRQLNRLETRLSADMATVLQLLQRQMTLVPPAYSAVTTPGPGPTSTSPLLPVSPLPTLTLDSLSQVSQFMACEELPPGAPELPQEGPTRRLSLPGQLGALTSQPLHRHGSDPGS
Sequence of Muscarinic acetylcholine receptor M3 (P20309 whole entry): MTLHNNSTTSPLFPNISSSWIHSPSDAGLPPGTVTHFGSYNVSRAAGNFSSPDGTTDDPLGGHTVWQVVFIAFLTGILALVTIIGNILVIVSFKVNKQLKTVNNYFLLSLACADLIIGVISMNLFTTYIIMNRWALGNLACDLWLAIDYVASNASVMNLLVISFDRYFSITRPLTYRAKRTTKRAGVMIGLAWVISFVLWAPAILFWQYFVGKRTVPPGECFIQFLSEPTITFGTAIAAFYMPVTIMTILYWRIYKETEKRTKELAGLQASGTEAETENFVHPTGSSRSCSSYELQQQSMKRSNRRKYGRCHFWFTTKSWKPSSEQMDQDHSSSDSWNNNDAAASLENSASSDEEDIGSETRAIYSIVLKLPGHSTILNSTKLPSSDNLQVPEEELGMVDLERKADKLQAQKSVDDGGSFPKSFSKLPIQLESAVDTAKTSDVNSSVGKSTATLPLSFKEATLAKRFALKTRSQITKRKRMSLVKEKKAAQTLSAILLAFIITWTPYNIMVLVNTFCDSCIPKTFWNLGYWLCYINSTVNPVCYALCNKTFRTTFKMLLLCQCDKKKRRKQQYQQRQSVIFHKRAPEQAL
Sequence of cGMP-inhibited 3',5'-cyclic phosphodiesterase 3A (Q14432 whole entry): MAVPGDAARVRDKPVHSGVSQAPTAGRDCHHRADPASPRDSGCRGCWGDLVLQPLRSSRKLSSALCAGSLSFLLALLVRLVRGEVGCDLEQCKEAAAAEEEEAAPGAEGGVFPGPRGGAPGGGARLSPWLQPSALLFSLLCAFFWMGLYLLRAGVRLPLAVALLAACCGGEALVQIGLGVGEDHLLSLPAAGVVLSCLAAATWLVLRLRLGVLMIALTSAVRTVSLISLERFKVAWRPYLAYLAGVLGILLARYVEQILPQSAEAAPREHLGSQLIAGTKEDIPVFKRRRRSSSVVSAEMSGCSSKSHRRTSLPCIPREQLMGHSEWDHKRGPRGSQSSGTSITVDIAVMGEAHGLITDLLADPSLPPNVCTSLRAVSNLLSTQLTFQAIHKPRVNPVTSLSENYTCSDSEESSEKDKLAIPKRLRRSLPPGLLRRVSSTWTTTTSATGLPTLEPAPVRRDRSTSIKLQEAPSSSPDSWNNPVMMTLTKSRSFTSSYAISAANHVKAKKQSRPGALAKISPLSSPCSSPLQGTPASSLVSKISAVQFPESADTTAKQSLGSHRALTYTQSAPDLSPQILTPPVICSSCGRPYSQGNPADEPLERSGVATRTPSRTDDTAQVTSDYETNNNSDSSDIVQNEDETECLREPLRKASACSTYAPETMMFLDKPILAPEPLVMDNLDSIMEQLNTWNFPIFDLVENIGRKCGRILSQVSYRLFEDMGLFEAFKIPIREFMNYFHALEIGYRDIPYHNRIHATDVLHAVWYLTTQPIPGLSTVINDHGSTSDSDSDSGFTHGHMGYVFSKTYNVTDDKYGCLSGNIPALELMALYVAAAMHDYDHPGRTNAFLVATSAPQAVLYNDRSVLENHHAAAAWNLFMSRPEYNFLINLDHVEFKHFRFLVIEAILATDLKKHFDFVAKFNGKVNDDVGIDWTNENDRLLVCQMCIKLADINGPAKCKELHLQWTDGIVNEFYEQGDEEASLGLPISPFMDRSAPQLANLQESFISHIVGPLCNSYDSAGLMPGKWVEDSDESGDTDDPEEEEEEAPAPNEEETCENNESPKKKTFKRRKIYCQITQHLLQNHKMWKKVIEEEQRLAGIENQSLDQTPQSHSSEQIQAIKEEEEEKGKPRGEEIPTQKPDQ
Sequence of D(3) dopamine receptor (P35462 whole entry): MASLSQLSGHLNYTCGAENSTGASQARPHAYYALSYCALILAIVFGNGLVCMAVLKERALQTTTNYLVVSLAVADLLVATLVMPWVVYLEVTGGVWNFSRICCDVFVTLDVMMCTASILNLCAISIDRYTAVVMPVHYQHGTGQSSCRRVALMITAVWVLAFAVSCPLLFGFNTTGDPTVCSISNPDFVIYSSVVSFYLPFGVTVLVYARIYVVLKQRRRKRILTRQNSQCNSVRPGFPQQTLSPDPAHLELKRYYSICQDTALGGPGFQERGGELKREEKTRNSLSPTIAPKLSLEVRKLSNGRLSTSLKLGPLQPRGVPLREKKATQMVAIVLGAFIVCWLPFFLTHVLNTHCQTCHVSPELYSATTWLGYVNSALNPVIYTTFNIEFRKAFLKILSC
Sequence of Mu-type opioid receptor (P35372 whole entry): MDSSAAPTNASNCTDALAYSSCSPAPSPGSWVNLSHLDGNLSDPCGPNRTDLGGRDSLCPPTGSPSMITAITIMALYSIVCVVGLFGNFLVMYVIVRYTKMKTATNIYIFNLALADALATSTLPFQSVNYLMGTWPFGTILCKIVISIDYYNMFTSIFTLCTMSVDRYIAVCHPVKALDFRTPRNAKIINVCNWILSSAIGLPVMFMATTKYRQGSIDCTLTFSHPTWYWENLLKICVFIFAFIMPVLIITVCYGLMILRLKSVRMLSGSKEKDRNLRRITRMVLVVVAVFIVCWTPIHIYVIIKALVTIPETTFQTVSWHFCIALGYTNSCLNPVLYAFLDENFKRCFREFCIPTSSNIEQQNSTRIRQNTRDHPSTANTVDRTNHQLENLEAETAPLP

As for `C=C1/C(=C\C=C2/CCC[C@]3(C)[C@@H]([C@H](C)/C=C/[C@@H](O)C4CC4)CC[C@@H]23)C[C@@H](O)C[C@@H]1O` [CALCIPOTRIENE], the AC50 (in test [1]; on D(3) dopamine receptor; in test [2]; on Thromboxane A2 receptor; at Mu-type opioid receptor; in test [3]) was above 30 µM throughout. In addition, the AC50 is above 30 µM in [4]; 27 µM in test [5]; above 30 µM in [6]; above 30 µM in test [7]; above 30 µM in [8].
